# In patent US20100298141A1, “SUBSTITUTED PYRIDINE N-OXIDE HERBICIDES” (E. I. DU PONT DE NEMOURS AND COMPANY, priority 2007, published 2010):
# Key:
# Experiment in all cases: Test C pre-/postemergence test
# downy brome = format: in vivo, Bromus tectorum; details: for Plant response rating, Bromegrass, Downy: Postemergence, scale 0 to 100, 0 no effect, 100 complete control
# Summary of the method: (§1)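 Compounds in a non-phytotoxic solvent with surfactant applied preemergence to seeded pots and, at the same time, postemergence to plants 2–18 cm tall (1- to 4-leaf stage). Paddy tests: pots flooded to 3 cm, compound applied into the water, depth held throughout.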
# eastern black nightshade = format: in vivo, Solanum ptycanthum
# Summary of the method: as §1
# [1] = test system: common (oilseed) sunflower; format: in vivo, Helianthus annuus; details: for Sunflower plant response rating: preemergence, scale 0 (no effect) to 100 (complete control)
# Summary of the method: as §1
# giant foxtail = format: in vivo, Setaria faberii; details: for Plant response rating, Foxtail, Giant: scale 0 to 100, 0 no effect, 100 complete control
# Summary of the method: as §1
# common ragweed = format: in vivo, Ambrosia elation; details: for Plant response rating, Ragweed: scale 0 to 100, 0 no effect, 100 complete control
# Summary of the method: as §1
# woolly cupgrass = format: in vivo, Eriochloa villosa; details: for Plant response rating, Cupgrass, Woolly: scale 0 to 100, 0 no effect, 100 complete control
# Summary of the method: as §1
# catchweed bedstraw = format: in vivo, Galium aparine
# Summary of the method: as §1
# velvetleaf = format: in vivo, Abutilon theophrasti; details: Postemergence; for Plant response rating, Velvetleaf: scale 0 to 100, 0 no effect, 100 complete control
# Summary of the method: as §1
# kochia = format: in vivo, Kochia scoparia; details: for Plant response rating, Kochia: scale 0 to 100, 0 no effect, 100 complete control
# Summary of the method: as §1
# lambsquarters = format: in vivo, Chenopodium album; details: for Plant response rating, Lambsquarters: scale 0 to 100, 0 no effect, 100 complete control
# Summary of the method: as §1
# [2] = preemergence, 125 g ai/ha, scale 0 (no effect) to 100 (complete control)
# [3] = 31 g ai/ha, Preemergence, scale 0 to 100
# [4] = 62 g ai/ha, preemergence, scale 0 (no effect) to 100 (complete control)
smiles,measurement,setting,value
Cc1cc[n+]([O-])c([S+]([O-])Cc2c(C(F)(F)F)nn(C)c2OC(F)F)c1 (centres unmarked) [Compound 1],"Plant response rating, Bromegrass, Downy",downy brome; 125 g ai/ha,0
same,"Plant response rating, Bromegrass, Downy",downy brome; 250 g ai/ha,0
same,"Plant response rating (0 to 100), Bromegrass, Downy","downy brome; Preemergence, 250 g ai/ha",100
same,"Bromegrass, Downy plant response rating",downy brome; [2],100
same,Nightshade plant response rating,eastern black nightshade; [3],70
same,Nightshade plant response rating,eastern black nightshade; [4],100
same,"Plant response rating (0 to 100), Nightshade","eastern black nightshade; Preemergence, 250 g ai/ha",100
same,Nightshade plant response rating,eastern black nightshade; [2],100
same,Sunflower plant response rating,[1]; 62 g ai/ha,5
same,"Plant response rating (0 to 100), Sunflower","[1]; Preemergence, 250 g ai/ha",75
same,Sunflower plant response rating,[1]; 125 g ai/ha,25
same,"Foxtail, Giant plant response rating",giant foxtail; [3],60
same,"Foxtail, Giant plant response rating",giant foxtail; [4],70
same,"Plant response rating (0 to 100), Foxtail, Giant","giant foxtail; Postemergence, 31 g ai/ha",0
same,"Plant response rating, Foxtail, Giant","giant foxtail; Postemergence, 62 g ai/ha",0
same,"Plant response rating, Foxtail, Giant","giant foxtail; Postemergence, 125 g ai/ha",45
same,"Plant response rating, Foxtail, Giant","giant foxtail; Postemergence, 250 g ai/ha",60
same,"Plant response rating (0 to 100), Foxtail, Giant","giant foxtail; Preemergence, 250 g ai/ha",100
same,"Foxtail, Giant plant response rating",giant foxtail; [2],100
same,Ragweed plant response rating,common ragweed; [3],0
same,Ragweed plant response rating,common ragweed; [4],10
same,"Plant response rating (0 to 100), Ragweed","common ragweed; Postemergence, 31 g ai/ha",0
same,"Plant response rating (0 to 100), Ragweed","common ragweed; Postemergence, 62 g ai/ha",0
same,"Plant response rating, Ragweed","common ragweed; Postemergence, 125 g ai/ha",10
same,"Plant response rating, Ragweed","common ragweed; Postemergence, 250 g ai/ha",20
same,"Plant response rating (0 to 100), Ragweed","common ragweed; Preemergence, 250 g ai/ha",85
same,Ragweed plant response rating,common ragweed; [2],85
same,"Cupgrass, Woolly plant response rating",woolly cupgrass; [3],40
same,"Cupgrass, Woolly plant response rating",woolly cupgrass; [4],60
same,"Plant response rating (0 to 100), Cupgrass, Woolly","woolly cupgrass; Postemergence, 31 g ai/ha",0
same,"Plant response rating, Cupgrass, Woolly","woolly cupgrass; Postemergence, 62 g ai/ha",0
same,"Plant response rating, Cupgrass, Woolly","woolly cupgrass; Postemergence, 125 g ai/ha",40
same,"Plant response rating, Cupgrass, Woolly","woolly cupgrass; Postemergence, 250 g ai/ha",70
same,"Plant response rating (0 to 100), Cupgrass, Woolly","woolly cupgrass; Preemergence, 250 g ai/ha",90
same,"Cupgrass, Woolly plant response rating",woolly cupgrass; [2],90
same,Galium plant response rating,catchweed bedstraw; [3],70
same,Galium plant response rating,catchweed bedstraw; [4],85
same,"Plant response rating (0 to 100), Galium","catchweed bedstraw; Preemergence, 250 g ai/ha",98
same,Galium plant response rating,catchweed bedstraw; [2],98
same,"Plant response rating (0 to 100), Velvetleaf",velvetleaf; 31 g ai/ha,10
same,"Plant response rating (0 to 100), Velvetleaf",velvetleaf; 62 g ai/ha,40
same,"Plant response rating, Velvetleaf",velvetleaf; 125 g ai/ha,45
same,"Plant response rating, Velvetleaf",velvetleaf; 250 g ai/ha,60
same,Kochia plant response rating,kochia; [3],100
same,Kochia plant response rating,kochia; [4],100
same,"Plant response rating (0 to 100), Kochia","kochia; Postemergence, 31 g ai/ha",0
same,"Plant response rating, Kochia","kochia; Postemergence, 62 g ai/ha",0
same,"Plant response rating, Kochia","kochia; Postemergence, 125 g ai/ha",10
same,"Plant response rating, Kochia","kochia; Postemergence, 250 g ai/ha",40
same,"Plant response rating (0 to 100), Kochia","kochia; Preemergence, 250 g ai/ha",100
same,Kochia plant response rating,kochia; [2],100
same,Lambsquarters plant response rating,lambsquarters; [3],100
same,Lambsquarters plant response rating,lambsquarters; [4],100
same,"Plant response rating (0 to 100), Lambsquarters","lambsquarters; Postemergence, 31 g ai/ha",0
same,"Plant response rating, Lambsquarters","lambsquarters; Postemergence, 62 g ai/ha",40
same,"Plant response rating, Lambsquarters","lambsquarters; Postemergence, 125 g ai/ha",40
same,"Plant response rating, Lambsquarters","lambsquarters; Postemergence, 250 g ai/ha",70
same,"Plant response rating (0 to 100), Lambsquarters","lambsquarters; Preemergence, 250 g ai/ha",100
same,Lambsquarters plant response rating,lambsquarters; [2],100
